For one data set, the system named is plasma insulin. In words: Plasma insulin at 24 h after OGTT in lean male SPD rats. Format: in vivo, Sprague-Dawley (SPD) rats. The following applies: non-significant. As to the method: (§1) Evaluation of the Acute Effects of Compound a and Compound B Upon Active GLP-1 wconcentrations during an oral glucose tolerance test (OGTT) and at 24 h in lean male SPD Rats
(§2) To establish the acute effects of oral administration of Compound A and Compound B upon active GLP-1 and insulin concentrations, lean (about 300 g) male Sprague-Dawley (SPD) rats were divided into groups (n=6-8) and fed 74 and 84 mg/kg body weight of Compound A or Compound B respectively, either with or without concurrent administration of a dipeptidyl peptidase 4 (DPP-4) inhibitor 60 minutes prior to an oral glucose tolerance test (OGTT) as outlined below. Parallel groups receiving either corn oil alone (corn oil+vehicle, n=10) or corn oil and a DPP-4 inhibitor (“DPP-4 i”) (corn oil+(DPP-4 i), n=10) were included as controls. The DPP-4 inhibitor was linagliptin.
(§3) A second oral dose of 74 and 84 mg/kg bodyweight of Compound A or Compound B respectively was administered at 240 minutes and ad lib feeding was initiated. A second dose of DPP-4 inhibitor was administered at 480 mins prior to lights out. Blood samples were collected at 24 h for measurement of active GLP-1 and insulin. All values are mean, figures depict mean values (SEM).

The nature of data set [1]: Intestinal tissue distribution of radioactivity by quantitative whole-body autoradiography (QWBA). Type of data set: in vivo, male albino rats. The conditions noted are these: single oral 50 mg/kg [14C]-Compound B. As to the method: Biological Example 7. Concentrations of Radioactivity in Intestinal Segments of Male Albino Rats after a Single Oral Administration of [14C]-Compound B at a Nominal Dose Level of 50 mg/kg Body Weight
This study was conducted to determine the intestinal tissue distribution of radioactivity in male albino rats following a single oral administration of [14C]-Compound B using quantitative whole-body autoradiography (QWBA). The tissue distribution in rats following a single oral dose of [14C]-Compound B at 50 mg/kg (Ca 5 MBq/kg) was studied by QWBA analysis up to 168 hours after dosing.

In the next data set the test system is active GLP-1. In words: Active GLP-1 during an oral glucose tolerance test (OGTT) and at 24 h in lean male SPD rats. Type of data set: in vivo, Sprague-Dawley (SPD) rats. The following applies: in combination with DPP4 inhibitor (linagliptin); Compound A 74 mg/kg, Compound B 84 mg/kg, two oral doses. As to the method:
as §1, §2, §3

Data set [2] deals with B6.V-Lepob/Jrj mice (ob/ob), T2DM rodent model. In words: Glucose tolerance (0-120 mins) after 28-day treatment in ob/ob mice. The conditions noted are these: 28 days; for glucose tolerance: 2 g/kg oral glucose load. Format: in vivo. As to the method: This study was carried out to assess the effects of chronic treatment with Compound B or Compound A on glucose tolerance in a T2DM rodent model.
For assessing the effects of Compound B, B6.V-Lepob/Jrj mice (ob/ob) mice were administered Compound B at one of 2 doses, 125 and 250 mg/kg for 28 days. […] After the oral glucose load, plasma glucose was measured at multiple time points from and AUC (0-120 mins) for glucose was calculated.

The mark [3] stands for this setting: 250 mg/kg once daily oral gavage.

Consider `CC/C=C\C/C=C\C/C=C\C/C=C\C/C=C\CCCCSC(CC)(CC)C(=O)O` [Compound B, 2-ethyl-2-((5Z,8Z,11 Z,14Z,17Z)-icosa-5,8,11,14,17-pentaenylthio)butanoic acid], for which the “increase of plasma insulin concentrations at 24 h versus corn oil+vehicle and corn oil+DPP4 inhibitor” value in the data set on plasma insulin (compound alone) worked out at 25%. Also, the “increase of plasma insulin concentrations at 24 h versus corn oil+vehicle and corn oil+DPP4 inhibitor” value in the data set on plasma insulin (in combination with DPP4 inhibitor (linagliptin)) was 40%. Moreover, in data set [1], the “accumulation in the caecum (time span)” value is on record as “from 4 hours onwards to 1 day”, the “accumulation in the large intestine (time)” value is 8 h and the “time of peak concentrations in the small intestinal mucosa” value came out at 4 h. The “active GLP-1 concentrations at 24 h versus corn oil+vehicle” value in the data set with active GLP-1 is recorded as “significantly (p<0.01) increased”. For the same molecule, the glucose tolerance entry in data set [2] (125 mg/kg once daily oral gavage) is given as “improved glucose tolerance”. Further, in data set [2] (setting [3]), the “AUC (0-120 mins) glucose” value is “potent and highly significant (p<0.001) reduction”; the glucose tolerance result is reported as “improved glucose tolerance”.
